Like-named read-outs stand apart in the source and are kept apart here.
Assays:
Primary T cells = assay: Cytotoxicity, viability by flow cytometry; type: cell-based
Procedure: Primary T cells are cultured and treated with different concentrations of the test compound. Viability is analysed by measuring through flow cytometry based techniques the percentage of viable cells, compared to untreated control=100%).

[1] = molecular target: human CDK9/CyclinT kinase complex (Homo sapiens (Human), UniProt P50750); assay: In Vitro CDK9/CyclinT Assay (IMAP fluorescent polarization); type: biochemical
human CDK9/CyclinT kinase complex, sequence (P50750 whole entry): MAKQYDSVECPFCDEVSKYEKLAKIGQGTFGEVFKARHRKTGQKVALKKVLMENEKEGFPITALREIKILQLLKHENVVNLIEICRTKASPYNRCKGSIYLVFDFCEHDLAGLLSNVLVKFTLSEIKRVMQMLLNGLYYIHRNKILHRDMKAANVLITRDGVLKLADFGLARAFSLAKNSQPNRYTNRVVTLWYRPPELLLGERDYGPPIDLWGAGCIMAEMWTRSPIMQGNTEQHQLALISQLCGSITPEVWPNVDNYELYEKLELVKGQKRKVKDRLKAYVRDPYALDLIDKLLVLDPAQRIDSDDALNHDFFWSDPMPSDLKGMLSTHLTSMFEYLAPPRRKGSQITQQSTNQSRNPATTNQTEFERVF
human CDK9/CyclinT kinase complex, sequence (O60563 whole entry partner): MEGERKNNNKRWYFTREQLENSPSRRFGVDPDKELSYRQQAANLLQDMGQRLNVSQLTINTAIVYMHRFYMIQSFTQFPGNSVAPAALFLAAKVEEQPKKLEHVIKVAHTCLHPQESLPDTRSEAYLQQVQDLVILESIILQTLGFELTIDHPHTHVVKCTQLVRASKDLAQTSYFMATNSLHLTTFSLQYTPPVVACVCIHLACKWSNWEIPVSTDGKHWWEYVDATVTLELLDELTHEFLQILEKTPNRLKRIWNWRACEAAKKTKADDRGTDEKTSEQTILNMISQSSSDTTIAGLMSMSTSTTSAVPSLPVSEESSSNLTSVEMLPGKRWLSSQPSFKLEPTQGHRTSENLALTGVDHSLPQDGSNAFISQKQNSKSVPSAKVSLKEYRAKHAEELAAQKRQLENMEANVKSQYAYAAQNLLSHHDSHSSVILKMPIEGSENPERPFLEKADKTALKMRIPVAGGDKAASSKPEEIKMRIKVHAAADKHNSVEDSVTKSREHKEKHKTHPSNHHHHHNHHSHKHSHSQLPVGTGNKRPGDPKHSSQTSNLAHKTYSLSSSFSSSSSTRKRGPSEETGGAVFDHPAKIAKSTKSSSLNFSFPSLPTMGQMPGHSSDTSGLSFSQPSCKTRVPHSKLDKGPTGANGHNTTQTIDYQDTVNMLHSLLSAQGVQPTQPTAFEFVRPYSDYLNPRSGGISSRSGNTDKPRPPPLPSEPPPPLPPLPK
Procedure: In Vitro CDK9/CyclinT Assay
The activity of the compounds described in the present invention can be determined by measuring the phosphorylation of a fluorescently-labeled peptide by human CDK9/CyclinT kinase complex by fluorescent polarization using a commercially available IMAP Screening Express Assay Kit (Molecular devices).
Test compounds were diluted in 100% DMSO to 5 mM stock concentration, then further dilutions were made in H2O or 100% DMSO to desirable concentrations. Each reaction consisted of 5 nM enzyme: CDK9/CyclinT (Proqinase cat#0371-0345-1), 400 nM TAMRA-Rbtide (synthetic 15-mer peptide derived from human retinoblastoma tumor suppressor protein labeled with TAMRA dye, Genecust Europe), 12 μM ATP (=Kmapp, Sigma-Aldrich) and kinase buffer: 20 mM MOPS pH 7 (Sigma-Aldrich), 1 mM DTT (Sigma-Aldrich), 10 mM MgCl2 (Sigma-Aldrich), 0.01% Tween 20 (Sigma-Aldrich).
For each reaction, 4 or 6 μl containing TAMRA-Rbtide, ATP and kianse buffer were combined with 2 μl diluted compound in H2O or 0.028 μl compound in 100% DMSO. The kinase reaction was started by the addition of 2 μl diluted enzyme. The reaction was allowed to run for 1 hour at room temperature. The reaction was stopped by adding 15 μl IMAP beads (1:400 beads in progressive (100% buffer A) 1× buffer).

[2] = test system: laboratory strain of HIV-1; assay: Antiviral Activity Against HIV (AV), p24 in infected activated primary T cells; type: cell-based
Procedure: Antiviral Activity Against HIV (AV)
Activated primary T cells are infected with a laboratory strain of HIV-1, then cultured and exposed to different concentrations of the test compounds. HIV replication is analysed by measuring the viral protein p24 and expressed as percentage of untreated control. Inhibition of viral replication (AV) is then calculated (AV=100 minus the % p24 compared to control, AV of control=0%). Inhibitory concentration 50% for antiviral activity (AV50) is calculated.

[3] = Table 4, toxic dose 50%, viable cells

IC50 ([1]; Table 1)	Compound	IC50 [1]	TD50 (Primary T cells)	also measured
	COc1ccc(Nc2cc(-c3ccccc3OC)ncn2)cc1CN1C(=O)c2ccccc2C1=O [Example 3, 2-(2-Methoxy-5-(6-(2-methoxyphenyl)pyrimidin-4-ylamino)benzyl)isoindoline-1,3-dione]	< 1000 nM		TD50 (Primary T cells; [3]): >5 µM; TD50 (Primary T cells; Table 5): >5 µM; IC50 ([2]; read-out: AV50, Table 5): > 1000 nM
< 100 nM	COc1ccccc1-c1cc(Nc2ccc(F)c(Cn3cnc4ccccc43)c2)ncn1 [Example 40, N-(3-((1H-Benzo[d]imidazol-1-yl)methyl)-4-fluorophenyl)-6-(2-methoxyphenyl)pyrimidin-4-amine]		0.4 µM	
	COc1ccccc1-c1cc(Nc2ccc(Cl)c(C(N)=O)c2)ncn1 [Example 44, 2-Chloro-5-(6-(2-methoxyphenyl)pyrimidin-4-ylamino)benzamide]	< 1000 nM	>5 µM	
	COc1ccc(-c2cc(Nc3ccc(OC)c(N)c3)ncn2)cc1 [Example 66, 4-Methoxy-N^1-[6-(4-methoxy-phenyl)-pyrimidin-4-yl]-benzene-1,3-diamine]	> 10000 nM	>10 µM	
> 10000 nM	COc1cccc(-c2cc(Nc3ccc(OC)c(N)c3)ncn2)c1 [Example 68, 4-Methoxy-N^1-[6-(3-methoxy-phenyl)-pyrimidin-4-yl]-benzene-1,3-diamine]		>10 µM	
> 10000 nM	COc1ccc(Nc2cc(-c3ccccc3O)ncn2)cc1N [Example 70, 2-[6-(3-Amino-4-methoxy-phenylamino)-pyrimidin-4-yl]-phenol]		>10 µM	
< 1000 nM	COc1ccc(Nc2cc(-c3ccccc3OCc3ccccc3)ncn2)cc1N [Example 71, N^1-[6-(2-Benzyloxy-phenyl)-pyrimidin-4-yl]-4-methoxy-benzene-1,3-diamine]		>10 µM	IC50 ([1]; Table 5): < 1000 nM
< 10000 nM	COc1ccc(Nc2cc(-c3ccccc3Oc3ccccc3)ncn2)cc1N [Example 77, 4-Methoxy-N^1-[6-(2-phenoxy-phenyl)-pyrimidin-4-yl]-benzene-1,3-diamine]		10 µM	
	COc1ccc(Nc2cc(-c3cccc(F)c3OC)ncn2)cc1N [Example 81, N^1-[6-(3-Fluoro-2-methoxy-phenyl)-pyrimidin-4-yl]-4-methoxy-benzene-1,3-diamine]	< 10000 nM	3 µM	
< 1000 nM	COc1ccc(Nc2cc(-c3ccc(F)cc3OC(C)C)ncn2)cc1N [Example 86, N^1-[6-(4-Fluoro-2-isopropoxy-phenyl)-pyrimidin-4-yl]-4-methoxy-benzene-1,3-diamine]		4 µM	
	COc1ccccc1-c1cc(Nc2cc(N)c(OC)c(F)c2)ncn1 [Example 88, 5-Fluoro-4-methoxy-N^1-[6-(2-methoxy-phenyl)-pyrimidin-4-yl]-benzene-1,3-diamine]	< 1000 nM	>20 µM	
< 1000 nM	CCOc1cc(F)ccc1-c1cc(Nc2cc(N)c(OC)c(F)c2)ncn1 [Example 89, N^1-[6-(2-Ethoxy-4-fluoro-phenyl)-pyrimidin-4-yl]-5-fluoro-4-methoxy-benzene-1,3-diamine]		>20 µM	
	COc1cc(F)ccc1-c1cc(Nc2cc(N)c(OC)c(F)c2)ncn1 [Example 90, 5-Fluoro-N^1-[6-(4-fluoro-2-methoxy-phenyl)-pyrimidin-4-yl]-4-methoxy-benzene-1,3-diamine]	< 1000 nM	>20 µM	
< 10000 nM	COc1cc(F)c(Nc2cc(-c3ccccc3OC)ncn2)cc1N [Example 92, 4-Fluoro-6-methoxy-N^3-[6-(2-methoxy-phenyl)-pyrimidin-4-yl]-benzene-1,3-diamine]		>20 µM	
	CCOc1ccc(Nc2cc(-c3ccccc3OC)ncn2)cc1N [Example 101, 4-Ethoxy-N^1-[6-(2-methoxy-phenyl)-pyrimidin-4-yl]-benzene-1,3-diamine]	< 1000 nM	12 µM	
< 1000 nM	CCOc1ccc(Nc2cc(-c3ccc(F)cc3OC)ncn2)cc1N [Example 105, 4-Ethoxy-N^1-[6-(4-fluoro-2-methoxy-phenyl)-pyrimidin-4-yl]-benzene-1,3-diamine]		7 µM	
	CCOc1ccc(Nc2cc(-c3ccc(F)cc3OC)ncn2)cc1O [Example 114, 2-Ethoxy-5-[6-(4-fluoro-2-methoxy-phenyl)-pyrimidin-4-ylamino]-phenol]	< 1000 nM	10 µM	
	COc1ccc(Nc2cc(-c3ccc(F)cc3OC)ncn2)cc1NC(C)=O [Example 117, N-{5-[6-(4-Fluoro-2-methoxy-phenyl)-pyrimidin-4-ylamino]-2-methoxy-phenyl}-acetamide]	< 1000 nM		TD50 (Primary T cells; [3]): >2 µM
< 1000 nM	COc1ccc(Nc2cc(-c3cc(F)ccc3OC)ncn2)cc1O [Example 122, 5-[6-(5-Fluoro-2-methoxy-phenyl)-pyrimidin-4-ylamino]-2-methoxy-phenol]		>2 µM	
	COc1ccc(Nc2cc(-c3ccc(F)cc3OC)ncn2)cc1OC(C)=O [Example 126, Acetic acid 5-[6-(4-fluoro-2-methoxy-phenyl)-pyrimidin-4-ylamino]-2-methoxy-phenyl ester]	< 1000 nM		TD50 (Primary T cells; [3]): >2 µM
< 1000 nM	COc1ccccc1-c1cc(Nc2ccc(C(N)=O)c(Cl)c2)ncn1 [Example 132, 2-Chloro-4-[6-(2-methoxy-phenyl)-pyrimidin-4-ylamino]-benzamide]		>10 µM	IC50 ([1]; Table 5): < 1000 nM
< 1000 nM	COC(=O)c1ccc(Nc2cc(-c3ccccc3OC)ncn2)cc1OC [Example 133, 2-Methoxy-4-[6-(2-methoxy-phenyl)-pyrimidin-4-ylamino]-benzoic acid methyl ester]		>10 µM	IC50 ([1]; Table 5): < 1000 nM
	CN1CC[C@H](c2c(O)cc(O)c3c(=O)cc(-c4ccccc4Cl)oc23)[C@H](O)C1 [Flavopiridol, reference compound]		0.1 µM	anti-HIV and cytotoxicity profile ([2]; summary in words): poor
	CC[C@H](CO)Nc1nc(NCc2ccccc2)c2ncn(C(C)C)c2n1 [Roscovitine, reference compound]			TD50 (Primary T cells; [3]): 8 µM; anti-HIV and cytotoxicity profile ([2]; summary in words): poor

Compound	IC50 ([1]; Table 1)	IC50 [1]	TD50 (Primary T cells)	also measured
COc1ccccc1-c1cc(Nc2ccc(N(C)C)cc2)ncn1 [Example 5, N^1-(6-(2-methoxyphenyl)pyrimidin-4-yl)-N^4,N^4-dimethylbenzene-1,4-diamine]	< 1000 nM			TD50 (Primary T cells; [3]): >10 µM; antiviral and antiproliferative activity and cytotoxicity profile ([2]; summary in words): good antiviral and antiproliferative activity and a good cytotoxicity profile
COc1ccc(Nc2cc(-c3ccccc3OC)ncn2)cc1C(=O)N(C)N [Example 46, 2-Methoxy-5-[6-(2-methoxy-phenyl)-pyrimidin-4-ylamino]-benzoic acid N-methyl-hydrazide]	< 1000 nM			TD50 (Primary T cells; [3]): >10 µM; TD50 (Primary T cells; Table 5): >10 µM; IC50 ([1]; Table 5): < 1000 nM
COC(=O)Nc1cc(Nc2cc(-c3ccc(F)cc3OC)ncn2)ccc1OC [Example 118, {5-[6-(4-Fluoro-2-methoxy-phenyl)-pyrimidin-4-ylamino]-2-methoxy-phenyl}-carbamic acid methyl ester]	< 1000 nM			TD50 (Primary T cells; [3]): >2 µM; TD50 (Primary T cells; Table 5): >2 µM; IC50 ([1]; Table 5): < 1000 nM
COc1ccccc1-c1cc(Nc2cc(F)c(OC)c(C(N)=O)c2)ncn1 [Example 137, 3-Fluoro-2-methoxy-5-[6-(2-methoxy-phenyl)-pyrimidin-4-ylamino]-benzamide]	< 10000 nM		>2 µM	
COc1cc(F)ccc1-c1cc(Nc2cc(F)c(OC)c(C(N)=O)c2)ncn1 [Example 138, 3-Fluoro-5-[6-(4-fluoro-2-methoxy-phenyl)-pyrimidin-4-ylamino]-2-methoxy-benzamide]	< 10000 nM		>20 µM	
CCOc1cc(F)ccc1-c1cc(Nc2cc(F)c(OC)c(C(N)=O)c2)ncn1 [Example 139, 5-[6-(2-Ethoxy-4-fluoro-phenyl)-pyrimidin-4-ylamino]-3-fluoro-2-methoxy-benzamide]	< 10000 nM		>20 µM	
COc1ccc(F)cc1-c1cc(Nc2cc(F)c(OC)c(C(N)=O)c2)ncn1 [Example 140, 3-Fluoro-5-[6-(5-fluoro-2-methoxy-phenyl)-pyrimidin-4-ylamino]-2-methoxy-benzamide]	< 10000 nM		>20 µM	
CCOc1ccc(F)cc1-c1cc(Nc2cc(C(N)=O)c(OC)cc2F)ncn1 [Example 148, 5-[6-(2-Ethoxy-5-fluoro-phenyl)-pyrimidin-4-ylamino]-4-fluoro-2-methoxy-benzamide]	< 10000 nM		1 µM	

— patent publication US9617225B2 (VIROSTATICS SRL, priority 2012, dated 2017)
